In experiment [1] the target is T1, Paired amphipathic helix protein Sin3b (Mus musculus) (UniProt Q62141).
T1 sequence (whole entry): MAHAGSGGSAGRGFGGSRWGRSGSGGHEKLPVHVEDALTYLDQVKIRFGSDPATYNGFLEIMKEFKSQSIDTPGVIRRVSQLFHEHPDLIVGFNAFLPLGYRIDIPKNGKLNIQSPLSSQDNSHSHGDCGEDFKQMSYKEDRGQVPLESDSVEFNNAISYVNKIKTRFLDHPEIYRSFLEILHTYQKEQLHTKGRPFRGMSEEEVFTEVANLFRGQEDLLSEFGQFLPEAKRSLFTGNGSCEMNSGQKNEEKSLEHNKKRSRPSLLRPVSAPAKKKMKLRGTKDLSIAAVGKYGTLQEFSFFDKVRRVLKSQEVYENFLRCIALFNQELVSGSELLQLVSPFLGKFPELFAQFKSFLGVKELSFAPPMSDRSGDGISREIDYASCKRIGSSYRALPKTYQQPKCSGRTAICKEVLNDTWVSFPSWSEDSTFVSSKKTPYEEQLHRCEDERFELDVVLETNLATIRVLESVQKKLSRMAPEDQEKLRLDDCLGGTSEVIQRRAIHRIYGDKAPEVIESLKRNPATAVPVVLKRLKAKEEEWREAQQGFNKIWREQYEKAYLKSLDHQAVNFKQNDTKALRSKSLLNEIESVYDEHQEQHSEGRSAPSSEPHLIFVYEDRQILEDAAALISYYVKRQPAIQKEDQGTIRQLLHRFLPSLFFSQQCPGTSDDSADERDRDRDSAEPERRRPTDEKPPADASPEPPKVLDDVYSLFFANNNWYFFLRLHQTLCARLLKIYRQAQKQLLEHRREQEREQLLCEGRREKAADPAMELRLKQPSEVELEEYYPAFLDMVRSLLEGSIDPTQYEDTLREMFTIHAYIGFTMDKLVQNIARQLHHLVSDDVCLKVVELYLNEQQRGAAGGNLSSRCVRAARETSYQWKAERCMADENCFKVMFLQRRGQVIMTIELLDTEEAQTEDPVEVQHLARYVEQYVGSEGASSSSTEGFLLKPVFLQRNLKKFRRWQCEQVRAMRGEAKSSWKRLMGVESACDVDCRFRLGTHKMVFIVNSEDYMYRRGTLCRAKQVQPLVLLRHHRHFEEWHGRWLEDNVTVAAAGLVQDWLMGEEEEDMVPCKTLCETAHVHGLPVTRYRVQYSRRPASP
Kind of experiment: Inhibition of N-terminal GST-tagged mouse Sin3B PAH1 domain (28 to 107 residues) expressed in Escherichia coli BL21 (DE3) binding to NRSF/REST at 100 uM by 1H STD-NMR spectrometric analysis.

The test system of experiment [2] is Mus musculus. Description: Antinociceptive activity in intermittent psychological stress treated partial sciatic nerve ligation C57BL/6J mouse model of fibromyalgia assessed as paw withdrawal latency time at 10 mg/kg, ip measured on day 19 (reference value: 3 sec). Format: functional.
The test system of experiment [3] is Mus musculus. Kind of experiment: Antinociceptive activity in partial sciatic nerve ligation C57BL/6J mouse model of neuropathic pain assessed as reduction in peripheral morphine analgesia at 10 mg/kg, ip administered daily from day 5 to day 11 measured on day 12. Type of experiment: functional, organism-based.
For experiment [4], the system named is Mus musculus. Kind of experiment: Antinociceptive activity in intermittent psychological stress treated partial sciatic nerve ligation C57BL/6J mouse model of fibromyalgia assessed as reduction in central morphine analgesia at 10 mg/kg, ip administered daily from day 5 to day 11 measured on day 12. Format: functional, organism-based.
Experiment [5] has as its target T1, Paired amphipathic helix protein Sin3b (Mus musculus). Kind of experiment: Binding affinity to N-terminal GST-tagged mouse Sin3B PAH1 domain (28 to 107 residues) expressed in Escherichia coli BL21 (DE3) assessed as chemical shift perturbations at 100 uM by 1H-15N HSQC titration analysis.
Experiment [6] relates to Mus musculus. Description: Antinociceptive activity in partial sciatic nerve ligation C57BL/6J mouse model of neuropathic pain assessed as reduction in C-fiber stimulated hyposensitivity at 10 mg/kg, ip administered daily from day 5 to day 11 measured on day 12. Format: functional, organism-based.
Experiment [7] relates to Mus musculus. Kind of experiment: Antinociceptive activity in intermittent psychological stress treated partial sciatic nerve ligation C57BL/6J mouse model of fibromyalgia assessed as paw withdrawal latency time at 10 mg/kg, ip measured on day 12 (reference value: 4 sec). Type of experiment: functional.
The subject of experiment [8] is Mus musculus. Kind of experiment: Antinociceptive activity in intermittent psychological stress treated partial sciatic nerve ligation C57BL/6J mouse model of fibromyalgia assessed as paw withdrawal latency time at 10 mg/kg, ip measured on day 12 (reference value: 3 sec). Format: functional.
Experiment [9] relates to Mus musculus. Description: Antinociceptive activity in intermittent cold stress treated partial sciatic nerve ligation C57BL/6J mouse model of fibromyalgia assessed as paw withdrawal latency time at 10 mg/kg, ip measured on day 12 (reference value: 13 sec). Format: functional.
Experiment [10] concerns Mus musculus. Description: Antinociceptive activity in intermittent psychological stress treated partial sciatic nerve ligation C57BL/6J mouse model of fibromyalgia assessed as paw withdrawal latency time at 10 mg/kg, ip measured on day 5 (reference value: 3 sec). Type of experiment: functional.
The subject of experiment [11] is Mus musculus. Description: Antinociceptive activity in partial sciatic nerve ligation C57BL/6J mouse model of neuropathic pain assessed as C-fiber stimulated paw withdrawal threshold at 10 mg/kg, ip measured on day 12 (reference value: 6 microA). Type of experiment: functional.
The subject of experiment [12] is Mus musculus. Description: Antinociceptive activity in intermittent cold stress treated partial sciatic nerve ligation C57BL/6J mouse model of fibromyalgia assessed as paw withdrawal latency time at 10 mg/kg, ip measured on day 5 (reference value: 10 sec). Format: functional.
The subject of experiment [13] is Mus musculus. Description: Antinociceptive activity in intermittent cold stress treated partial sciatic nerve ligation C57BL/6J mouse model of fibromyalgia assessed as reversal of thermal hyperalgesia at 10 mg/kg, ip administered daily from day 5 to day 11 measured on day 12. Format: functional, organism-based.
The test system of experiment [14] is Mus musculus. Description: Antinociceptive activity in partial sciatic nerve ligation C57BL/6J mouse model of neuropathic pain assessed as C-fiber stimulated paw withdrawal threshold at 10 mg/kg, ip measured on day 5 (reference value: 3 microA). Format: functional.
The subject of experiment [15] is Mus musculus. Description: Antinociceptive activity in intermittent psychological stress treated partial sciatic nerve ligation C57BL/6J mouse model of fibromyalgia assessed as paw withdrawal latency time at 10 mg/kg, ip measured on day 19 (reference value: 4 sec). Type of experiment: functional.
Experiment [16] has as its system Mus musculus. Description: Antinociceptive activity in intermittent psychological stress treated partial sciatic nerve ligation C57BL/6J mouse model of fibromyalgia assessed as reversal of thermal hyperalgesia at 10 mg/kg, ip administered daily from day 5 to day 11 measured on day 12. Type of experiment: functional, organism-based.
In experiment [17] the test system is Mus musculus. Description: Antinociceptive activity in intermittent psychological stress treated partial sciatic nerve ligation C57BL/6J mouse model of fibromyalgia assessed as paw withdrawal latency time at 10 mg/kg, ip measured on day 5 (reference value: 4 sec). Type of experiment: functional.
In experiment [18] the test system is Mus musculus. Kind of experiment: Antinociceptive activity in intermittent cold stress treated partial sciatic nerve ligation C57BL/6J mouse model of fibromyalgia assessed as reduction in central morphine analgesia at 10 mg/kg, ip administered daily from day 5 to day 11 measured on day 12. Format: functional, organism-based.

The structures appear in SMILES notation. The source made the active and inactive calls.

For the compound `CCCC[C@H]1C(=O)N(CCC(C)C)C[C@@H]2N(C(=O)OC(C)C)CC3(CCCCC3)C(=O)N21`, the inhibition entry in [1] is “Active”.

Consider `CC[C@H]1ON(C(=O)OC(C)C)[C@H]2CN(CCC(C)C)C(=O)[C@H](CCSC)N2C1=O`, for which the Time was found to be 3 s with Mus musculus [2]; 4 s in the experiment with Mus musculus [7]; 3 s with Mus musculus [8]; 13 s with Mus musculus [9]; 3 s in the experiment with Mus musculus [10]; 10 s with Mus musculus [12]. In addition, the Time in the experiment with Mus musculus [15] and in the experiment with Mus musculus [17] was 4 s each time. The result (with Mus musculus [3]; in the experiment with Mus musculus [4]; in [5]; with Mus musculus [6]; with Mus musculus [13]; in the experiment on Mus musculus [16]) was Active. Moreover, the result in the experiment on Mus musculus [18] was Active. Moreover, the inhibition entry in experiment [1] is “Active”. For the same compound, the Activity in the experiment with Mus musculus [11] is 6 microA; with Mus musculus [14], 3 microA.

Source of the values: ChEMBL document CHEMBL4043232, “A mimetic of the mSin3-binding helix of NRSF/REST ameliorates abnormal pain behavior in chronic pain models” (2017).
